Laboratory results taken from paper PMC6332508, “A Promising PET Tracer for Imaging of α7 Nicotinic Acetylcholine Receptors in the Brain: Design, Synthesis, and in Vivo Evaluation of a Dibenzothiophene-Based Radioligand” (Molecules, 2015).
“And” between values parts separate entries of the source, which are not always exact repeats. Equal values may be shown once.

Test system: α7 nAChR
Experiment: Dynamic PET studies in piglets with kinetic modelling (2TCM)
Type: in vivo
Set-up: clearance rate constant k2, mean: unit not given here
Conditions: for BPND / Rate Constant K1 / Rate Constant k2 / Rate Constant k3 / Rate Constant k4 / VND: piglet brain, 240 min scan data; for total volume of distribution VT: piglet, K1/k2(1 + k3/k4)
Method: One-tissue and two-tissue compartment models (1TCM and 2TCM) were evaluated for mathematical description of [^18F]10a time-activity curves (TACs) in pig brain regions (Figure 3) using metabolite-corrected arterial plasma input functions. The 2TCM was identified as the more appropriate model based on its smaller Akaike information criterion (AIC) value. The four rate constants K1, k2, k3, and k4 were fitted and the non-displaceable volume of distribution (VND = K1/k2) and the binding potential (BPND = k3/k4) as defined by Innis et al. were calculated for each region of interest (Table 3 and Table 4).
Six female animals were used in this study with anesthesia and surgery performed as described previously. In brief, the animals received initially a premedication with midazolam (1 mg∙kg^−1 i.m.) followed by induction of anesthesia with 3% isoflurane in 70% N2O/30% O2. All incision sites were infiltrated with 1% lidocaine, and the anesthesia was maintained with 1.5% isoflurane throughout the surgical procedure. A central venous catheter was introduced through the left external jugular vein and used for the administration of the radiotracer and drugs, and for volume substitution with heparinized (50 IE∙mL^−1) lactated Ringer’s solution (2 mL∙kg^−1∙h^−1). An endotracheal tube was inserted by tracheotomy for artificial ventilation (Servo Ventilator 900C, Siemens-Elema, Solna, Sweden) after immobilization with pancuronium bromide (0.2 mg∙kg^−1∙h^−1). The artificial ventilation was adjusted to obtain normoxia and normocapnia (Radiometer ABL 500, Copenhagen, Denmark). Polyurethane catheters (i.d., 0.5 mm) were advanced through the left and the right femoral arteries into the abdominal aorta to withdraw arterial blood samples for regular monitoring of blood gases and for radiotracer input function measurements and metabolite analyses. The body temperature was monitored by a rectal temperature probe and maintained at ~38 °C by a heating pad. After the surgical procedure has been completed, anesthesia was maintained with 0.5% isoflurane in 70% N2O/30% O2, and the animals were allowed to stabilize for 1 h before imaging procedure.
PET imaging was performed according to the protocol described recently. In brief, a clinical tomograph (ECAT Exact HR+; Siemens Healthcare GmbH, Erlangen, Germany) was used with animals lying prone with the head placed in a custom-made head holder. For attenuation and scatter correction, transmission scans were acquired using three rotating ^68Ge rod sources. The radiotracer was injected as an intravenous (i.v.) bolus (10 mL saline with 340–494 MBq [^18F]10a) by a syringe pump within 2 min followed by flushing with 10 mL heparinized saline (50 IE∙mL^−1). PET scanning started at the time of injection (0 min) and dynamic emission data were acquired for a total of 240 min. Three animals were investigated under baseline conditions, and another three under blocking conditions with administration of 3 mg∙kg^−1 i.v. of the α7 nAChR partial agonist NS6740 at 3 min before radiotracer injection followed by a continuous infusion throughout the scan (1 mg∙kg^−1∙h^−1).
Arterial blood was sampled using a peristaltic pump during the first 20 min of the scan followed by manual sampling at 25, 30, 40, 50, 60, 90, 120, 150, 180, 210, and 240 min after injection. Plasma was obtained by centrifugation (13,000 rpm, 2 min at 21 °C) and total radioactivity concentration was measured using a gamma-counter (1470 Wizard; PerkinElmer, Shelton, CT, USA) cross-calibrated to the PET scanner. In addition, arterial whole blood was sampled manually at 4, 16, 30, 60, and 120 min p.i. and plasma obtained for metabolite analyses to determine the fraction of non-metabolized [^18F]10a.
The plasma input function was corrected for the presence of radioactive metabolites by determination of the parent fraction as described previously. […]

[1] = Cerebellum, blocking (NS6740), n = 3
[2] = Colliculi, blocking (NS6740), n = 3
[3] = Frontal Cortex, baseline, n = 3
[4] = Frontal Cortex, blocking (NS6740), n = 3
[5] = Hippocampus, blocking (NS6740), n = 3
[6] = Midbrain, blocking (NS6740), n = 3
[7] = Occipital Cortex, baseline, n = 3
[8] = Occipital Cortex, blocking (NS6740), n = 3
[9] = Parietal Cortex, baseline, n = 3
[10] = Parietal Cortex, blocking (NS6740), n = 3
[11] = Striatum, blocking (NS6740), n = 3
[12] = Thalamus, blocking (NS6740), n = 3
[13] = Whole, blocking (NS6740), n = 3

O=S1(=O)c2ccc([18F])cc2-c2ccc(N3CCN4CCC3CC4)cc21 [[^18F]10a]
increase of VND under blocking conditions (NS6740 vs baseline): up to 4 fold
time of peak concentrations of radioactivity in the brain (baseline, i.v., n = 3): 8–10 min p.i.
SUVmax (baseline, other brain regions): 1.9–2.1
SUVmax (baseline, thalamus, colliculi, and midbrain): > 2.2
BPND (Cerebellum, baseline, n = 3): 2.5 and 2.53 ± 0.57
Rate Constant K1 (Cerebellum, baseline, n = 3): 0.421 ± 0.048 mL·cm^−3·min^−1
Rate Constant k2 (Cerebellum, baseline, n = 3): 0.131 ± 0.052 min⁻¹
Rate Constant k3 (Cerebellum, baseline, n = 3): 0.067 ± 0.051 min⁻¹
Rate Constant k4 (Cerebellum, baseline, n = 3): 0.026 ± 0.020 min⁻¹
VND (Cerebellum, baseline, n = 3): 3.62 ± 1.47
BPND [1]: 0.71 ± 1.10
Rate Constant K1 [1]: 0.711 ± 0.148 mL·cm^−3·min^−1
Rate Constant k2 [1]: 0.076 ± 0.014 min⁻¹
Rate Constant k3 [1]: 0.016 ± 0.019 min⁻¹
Rate Constant k4 [1]: 0.011 ± 0.016 min⁻¹
VND [1]: 9.75 ± 3.57
BPND (Colliculi, baseline, n = 3): 2.68 ± 1.42
Rate Constant K1 (Colliculi, baseline, n = 3): 0.450 ± 0.072 mL·cm^−3·min^−1
Rate Constant k2 (Colliculi, baseline, n = 3): 0.134 ± 0.074 min⁻¹
Rate Constant k3 (Colliculi, baseline, n = 3): 0.070 ± 0.042 min⁻¹
Rate Constant k4 (Colliculi, baseline, n = 3): 0.027 ± 0.018 min⁻¹
VND (Colliculi, baseline, n = 3): 4.19 ± 2.37
BPND [2]: 0.73 ± 0.74
Rate Constant K1 [2]: 0.735 ± 0.182 mL·cm^−3·min^−1
Rate Constant k2 [2]: 0.066 ± 0.007 min⁻¹
Rate Constant k3 [2]: 0.011 ± 0.013 min⁻¹
Rate Constant k4 [2]: 0.007 ± 0.015 min⁻¹
VND [2]: 11.41 ± 3.90
BPND [3]: 4.22 ± 2.93
Rate Constant K1 [3]: 0.387 ± 0.059 mL·cm^−3·min^−1
Rate Constant k2 [3]: 0.182 ± 0.153 min⁻¹
Rate Constant k3 [3]: 0.142 ± 0.165 min⁻¹
Rate Constant k4 [3]: 0.027 ± 0.015 min⁻¹
VND [3]: 3.32 ± 2.06
BPND [4]: 0.86 ± 0.92
Rate Constant K1 [4]: 0.647 ± 0.117 mL·cm^−3·min^−1
Rate Constant k2 [4]: 0.055 ± 0.011 min⁻¹
Rate Constant k3 [4]: 0.014 ± 0.019 min⁻¹
Rate Constant k4 [4]: 0.010 ± 0.020 min⁻¹
VND [4]: 12.34 ± 4.27
BPND (Hippocampus, baseline, n = 3): 5.5 and 5.50 ± 1.01
Rate Constant K1 (Hippocampus, baseline, n = 3): 0.400 ± 0.023 mL·cm^−3·min^−1
Rate Constant k2 (Hippocampus, baseline, n = 3): 0.188 ± 0.083 min⁻¹
Rate Constant k3 (Hippocampus, baseline, n = 3): 0.145 ± 0.101 min⁻¹
Rate Constant k4 (Hippocampus, baseline, n = 3): 0.025 ± 0.013 min⁻¹
VND (Hippocampus, baseline, n = 3): 2.43 ± 0.96
BPND [5]: 0.84 ± 1.70
Rate Constant K1 [5]: 0.603 ± 0.118 mL·cm^−3·min^−1
Rate Constant k2 [5]: 0.063 ± 0.023 * min^−1
Rate Constant k3 [5]: 0.024 ± 0.030 min⁻¹
Rate Constant k4 [5]: 0.011 ± 0.015 min⁻¹
VND [5]: 10.81 ± 5.02
BPND (Midbrain, baseline, n = 3): 3.40 ± 1.73
Rate Constant K1 (Midbrain, baseline, n = 3): 0.436 ± 0.045 mL·cm^−3·min^−1
Rate Constant k2 (Midbrain, baseline, n = 3): 0.162 ± 0.117 min⁻¹
Rate Constant k3 (Midbrain, baseline, n = 3): 0.121 ± 0.132 min⁻¹
Rate Constant k4 (Midbrain, baseline, n = 3): 0.029 ± 0.022 min⁻¹
VND (Midbrain, baseline, n = 3): 4.04 ± 3.06
BPND [6]: 0.61 ± 0.77
Rate Constant K1 [6]: 0.685 ± 0.131 mL·cm^−3·min^−1
Rate Constant k2 [6]: 0.063 ± 0.010 min⁻¹
Rate Constant k3 [6]: 0.013 ± 0.014 min⁻¹
Rate Constant k4 [6]: 0.012 ± 0.018 min⁻¹
VND [6]: 11.17 ± 3.64
BPND [7]: 3.16 ± 1.11
Rate Constant K1 [7]: 0.395 ± 0.053 mL·cm^−3·min^−1
Rate Constant k2 [7]: 0.123 ± 0.063 min⁻¹
Rate Constant k3 [7]: 0.099 ± 0.087 min⁻¹
Rate Constant k4 [7]: 0.030 ± 0.023 min⁻¹
VND [7]: 4.07 ± 2.23
BPND [8]: 0.95 ± 1.03
Rate Constant K1 [8]: 0.668 ± 0.103 mL·cm^−3·min^−1
Rate Constant k2 [8]: 0.064 ± 0.019 min⁻¹
Rate Constant k3 [8]: 0.022 ± 0.032 min⁻¹
Rate Constant k4 [8]: 0.013 ± 0.023 min⁻¹
VND [8]: 11.36 ± 4.41
BPND [9]: 3.47 ± 1.65
Rate Constant K1 [9]: 0.399 ± 0.038 mL·cm^−3·min^−1
Rate Constant k2 [9]: 0.140 ± 0.089 min⁻¹
Rate Constant k3 [9]: 0.126 ± 0.135 min⁻¹
Rate Constant k4 [9]: 0.031 ± 0.021 min⁻¹
VND [9]: 3.88 ± 2.49
BPND [10]: 0.82 ± 0.88
Rate Constant K1 [10]: 0.659 ± 0.120 mL·cm^−3·min^−1
Rate Constant k2 [10]: 0.055 ± 0.013 min⁻¹
Rate Constant k3 [10]: 0.015 ± 0.020 min⁻¹
Rate Constant k4 [10]: 0.011 ± 0.021 min⁻¹
VND [10]: 12.58 ± 4.52
BPND (Pons, baseline, n = 3): 2.76 ± 0.81
Rate Constant K1 (Pons, baseline, n = 3): 0.440 ± 0.045 mL·cm^−3·min^−1
Rate Constant k2 (Pons, baseline, n = 3): 0.149 ± 0.059 min⁻¹
Rate Constant k3 (Pons, baseline, n = 3): 0.068 ± 0.042 min⁻¹
Rate Constant k4 (Pons, baseline, n = 3): 0.026 ± 0.019 min⁻¹
VND (Pons, baseline, n = 3): 3.32 ± 1.40
BPND (Pons, blocking (NS6740), n = 3): 0.76 ± 1.16
Rate Constant K1 (Pons, blocking (NS6740), n = 3): 0.670 ± 0.092 mL·cm^−3·min^−1
Rate Constant k2 (Pons, blocking (NS6740), n = 3): 0.084 ± 0.030 min⁻¹
Rate Constant k3 (Pons, blocking (NS6740), n = 3): 0.019 ± 0.023 min⁻¹
Rate Constant k4 (Pons, blocking (NS6740), n = 3): 0.012 ± 0.016 min⁻¹
VND (Pons, blocking (NS6740), n = 3): 8.93 ± 3.96
BPND (Striatum, baseline, n = 3): 3.98 ± 1.40
Rate Constant K1 (Striatum, baseline, n = 3): 0.382 ± 0.028 mL·cm^−3·min^−1
Rate Constant k2 (Striatum, baseline, n = 3): 0.144 ± 0.079 min⁻¹
Rate Constant k3 (Striatum, baseline, n = 3): 0.114 ± 0.093 min⁻¹
Rate Constant k4 (Striatum, baseline, n = 3): 0.027 ± 0.014 min⁻¹
VND (Striatum, baseline, n = 3): 3.35 ± 1.81
BPND [11]: 0.75 ± 1.29
Rate Constant K1 [11]: 0.624 ± 0.143 mL·cm^−3·min^−1
Rate Constant k2 [11]: 0.057 ± 0.015 min⁻¹
Rate Constant k3 [11]: 0.020 ± 0.025 min⁻¹
Rate Constant k4 [11]: 0.011 ± 0.017 min⁻¹
VND [11]: 11.78 ± 4.91
BPND (Thalamus, baseline, n = 3): 3.51 ± 1.13
Rate Constant K1 (Thalamus, baseline, n = 3): 0.448 ± 0.027 mL·cm^−3·min^−1
Rate Constant k2 (Thalamus, baseline, n = 3): 0.150 ± 0.071 min⁻¹
Rate Constant k3 (Thalamus, baseline, n = 3): 0.111 ± 0.085 min⁻¹
Rate Constant k4 (Thalamus, baseline, n = 3): 0.030 ± 0.018 min⁻¹
VND (Thalamus, baseline, n = 3): 3.67 ± 2.10
BPND [12]: 0.88 ± 1.00
Rate Constant K1 [12]: 0.762 ± 0.129 mL·cm^−3·min^−1
Rate Constant k2 [12]: 0.070 ± 0.025 min⁻¹
Rate Constant k3 [12]: 0.023 ± 0.031 min⁻¹
Rate Constant k4 [12]: 0.012 ± 0.021 min⁻¹
VND [12]: 12.09 ± 5.31
BPND (Whole, baseline, n = 3): 3.31 ± 1.02
Rate Constant K1 (Whole, baseline, n = 3): 0.362 mL·cm^−3·min^−1 and 0.362 ± 0.038 mL·cm^−3·min^−1
Rate Constant k2 (Whole, baseline, n = 3): 0.131 ± 0.062 min⁻¹
Rate Constant k3 (Whole, baseline, n = 3): 0.093 ± 0.074 min⁻¹
Rate Constant k4 (Whole, baseline, n = 3): 0.027 ± 0.018 min⁻¹
VND (Whole, baseline, n = 3): 3.32 ± 1.74
BPND [13]: 0.84 ± 1.07
Rate Constant K1 [13]: 0.598 ± 0.108 mL·cm^−3·min^−1
Rate Constant k2 [13]: 0.062 ± 0.015 min⁻¹
Rate Constant k3 [13]: 0.018 ± 0.022 min⁻¹
Rate Constant k4 [13]: 0.011 ± 0.018 min⁻¹
VND [13]: 10.27 ± 3.94
total volume of distribution VT (cerebellum, baseline): 13 mL∙cm^−3
total volume of distribution VT (thalamus, baseline): 17 mL∙cm^−3
clearance rate constant k2, mean (whole brain, baseline): 0.131
